Experimental data taken from article PMC3549684 (Bioorganic & medicinal chemistry letters, 2012).

Assays:
[1] = biological target: T1, recombinant mouse Lp-PLA2 (Mus musculus, UniProt Q60963); settings: previously shown; cited from earlier work
T1 sequence (Q60963 22-440): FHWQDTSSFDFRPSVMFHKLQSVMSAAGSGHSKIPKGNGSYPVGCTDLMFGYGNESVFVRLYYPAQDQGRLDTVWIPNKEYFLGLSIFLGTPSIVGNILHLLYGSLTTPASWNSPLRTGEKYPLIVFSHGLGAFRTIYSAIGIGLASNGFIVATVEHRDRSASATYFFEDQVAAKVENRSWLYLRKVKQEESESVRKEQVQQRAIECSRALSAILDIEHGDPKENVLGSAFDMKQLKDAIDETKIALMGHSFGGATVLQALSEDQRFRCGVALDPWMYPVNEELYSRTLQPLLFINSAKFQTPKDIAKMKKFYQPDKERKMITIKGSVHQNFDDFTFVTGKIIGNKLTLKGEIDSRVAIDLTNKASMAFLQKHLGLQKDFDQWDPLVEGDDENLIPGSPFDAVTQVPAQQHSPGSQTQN

[2] = test system: serine hydrolases detected in mouse brain; format: biochemical; settings: FP-Rh, concentrations up to 10 µM
[3] = test system: other detected serine hydrolase activities in the PC3 cell proteome; test: competitive ABPP with FP-Rh in PC3 cell proteome, selectivity; format: biochemical, human; settings: FP-Rh probe
[4] = test system: other ~40 serine hydrolases detected in PC3 cells; test: ABPP-SILAC of inhibitor-treated PC3 cells in situ, other serine hydrolases; format: cell-based, human; settings: 100 nM, 4 hours
ApoE-deficient mice = settings: cited from earlier work
[5] = test system: diabetic and hypercholesterolemic swine; settings: cited from earlier work
[6] = test system: human patients with coronary heart disease; settings: cited from earlier work

Row | Structure (SMILES) | inhibition of mouse Lp-PLA2 [1] | cross-reactivity with other serine hydrolases [2] | inhibition of other detected serine hydrolase activities [3] | effect on other ~40 serine hydrolases in situ [4] | atherosclerotic plaque formation (ApoE-deficient mice) | plasma Lp-PLA2 activity (ApoE-deficient mice) | atherosclerotic plaque formation [5] | plasma Lp-PLA2 activity [5] | atherosclerotic plaque formation [6] | plasma Lp-PLA2 activity [6]
1 | CCCCCCCCCCC[C@@H](C[C@@H]1OC(=O)[C@H]1CCCCCC)OC(=O)[C@H](CC(C)C)NC=O [THL, tetrahydrolipstatin] | inhibited |  |  |  |  |  |  |  |  | 
2 | CCN(CC)CCN(Cc1ccc(-c2ccc(C(F)(F)F)cc2)cc1)C(=O)Cn1c(SCc2ccc(F)cc2)nc(=O)c2c1CCC2 [darapladib] |  | neither darapladib nor JMN4 cross-reacted | not inhibited | not affecting any | significantly decrease | significantly decrease | significantly decrease | significantly decrease | significantly decrease | significantly decrease
